US20250154193A1, “STEROID COMPOUND, AND PREPARATION METHOD THEREFOR AND APPLICATION THEREOF” (CHOLESGEN (SHANGHAI) CO., LTD., priority 2022, published 2025)

Tested on: SREBP pathway
Assay: SREBP luciferase reporter gene system (SRE-luciferase assay) in Huh-7/SRE-Luc cells
Assay type: cell-based
Details: Homo sapiens, sterol-deficient medium, compound treatment 16 hours, luciferase/GFP ratio
Procedure: Huh-7/SRE-Luc, a human hepatocellular carcinoma cell line, was grown in a culture medium containing DMEM, 10% fetal bovine serum, 100 units/mL penicillin, 100 µg/mL streptomycin, and 200 μg/mL G418.
The Huh-7/SRE-Luc cell line is a human hepatocellular carcinoma cell line Huh-7 stably expressing LDLR promoter-luciferase and green fluorescent protein (GFP). The LDLR promoter region contains a sterol regulatory element (SRE) that can effectively and sensitively respond to the regulation of the transcription factor SREBP. The GFP signal serves as an internal reference to indicate changes in cell number. Therefore, this cell line can be used to screen for active small molecules that regulate the SREBP signaling pathway. […] Cells were incubated in a sterol-deficient medium (5% lipoprotein-deficient serum, 2 μM Lovastatin, 10 μM mevalonate) and treated with corresponding concentrations of compounds for 16 hours. After compound treatment, the cells were lysed with lysis buffer (E397A, Promega), followed by the addition of luciferase substrate (E1500, Promega). The SRE-driven luciferase activity was measured using a BioTek Synergy HTX microplate reader (including but not limited to this type of instrument). The fluorescence intensity of enhanced green fluorescent protein (EGFP) was also measured using the BioTek microplate reader (including but not limited to this type of instrument) and used as an internal reference. The ratio of SRE-driven luciferase activity to GFP fluorescence intensity was used as an indicator of SREBP pathway activity. The test data of each test compound was analyzed using Prism software to obtain the IC50 parameter of the compound.
The inhibitory effect of the compounds of the present disclosure on the SREBP pathway was tested by the method of bioassay example 2. The concentration gradient of each compound was designed as 0.01, 0.03, 0.1, 0.3, 1.0, 3.0, and […], with DMSO as a vehicle control.

`C[C@H](CCCC1(O)CC1)[C@H]1CC[C@H]2[C@H]3[C@H](CC[C@]12C)[C@@]1(C)CC[C@H](O)C[C@@H]1CC3(F)F` [compound 288, (1R,3aS,5aR,7S,9aS,11aR)-4,4-difluoro-1-[(2R)-5-(hydroxycyclopropyl)pentan-2-yl]-9a,11a-dimethylhexadecahydro-1H-cyclopenta[1,2-a]phenanthrene-7-ol] showed an IC50 of 0.308 µM.
`C[C@H](CCCC(C)(C)O)[C@H]1CC[C@H]2[C@@H]3CCC4(F)C[C@@H](O)CC[C@]4(C)[C@H]3CC[C@]12C` (stereo partly drawn) [compound 266, 5-fluorocholest-3β,25-diol] showed an IC50 of 0.176 µM.
In the case of `C[C@H](CCCC(O)c1ccccc1)[C@H]1CC[C@H]2[C@@H]3CC[C@H]4[C@@H](O)[C@@H](O)CC[C@]4(C)[C@H]3CC[C@]12C` (stereo partly drawn) [compound 305, 24-(hydroxyphenylmethyl)-5α-cholan-3β,4β-diol], the IC50 is reported as 0.119 µM.
`C[C@H](CCCC(C)(C)O)[C@H]1CC[C@H]2[C@@H]3/C(=N/O)C[C@H]4C[C@@H](O)CC[C@]4(C)[C@H]3CC[C@]12C` [compound 285, [(1R,3aS,3bR,4E,5aS,7S,9aS,9bS,11aR)-7-hydroxy-1-[(2R)-6-hydroxy-6-methylheptan-2-yl]-9a,11a-dimethylhexadecahydro-1H-cyclopenta[1,2-a]phenanthren-4-ylidene]hydroxylamine] gave an IC50 of 0.793 µM.
`COc1ccccc1[C@H](O)CCC[C@@H](C)[C@H]1CC[C@H]2[C@@H]3CC[C@H]4[C@@H](O)[C@@H](O)CC[C@]4(C)[C@H]3CC[C@]12C` (single isomer, unassigned) [compound 325, 24-[S-hydroxy(2-methoxyphenyl)methyl]-5α-cholan-3β,4β-diol or 24-[R-hydroxy(2-methoxyphenyl)methyl]-5α-cholan-3β,4β-diol] showed an IC50 of 0.09 µM.
Work on `C[C@H](CCCC(C)(C)O)[C@H]1CC[C@H]2[C@@H]3C(=O)C[C@H]4[C@@H](O)[C@@H](O)CC[C@]4(C)[C@H]3CC[C@]12C` [compound 242, 25-hydroxy-4β-hydroxy-3β-hydroxy-5α-cholest-7-one] yielded an IC50 of 0.556 µM.
Work on `C[C@H](CCCC(C)(C)O)[C@H]1CC[C@H]2[C@@H]3CC[C@H]4C[C@@H](OC(=O)CC(=O)O)CC[C@]4(C)[C@H]3CC[C@]12C` [compound 293, 3-{[(1R,3aS,3bR,5aS,7S,9aS,9bS,11aR)-1-[(2R)-6-hydroxy-6-methylheptan-2-yl]-9a,11a-dimethylhexadecahydro-1H-cyclopenta[1,2-a]phenanthren-7-yl]oxy}-3-oxopropanoic acid] yielded an IC50 of 0.136 µM.
With `Cc1ccccc1C(O)CCC[C@@H](C)[C@H]1CC[C@H]2[C@@H]3CC[C@H]4[C@@H](O)[C@@H](O)CC[C@]4(C)[C@H]3CC[C@]12C` (stereo partly drawn) [compound 323, 24-[hydroxy(2-methylphenyl)methyl]-5α-cholan-3β,4β-diol] the IC50 was 0.25 µM.
`C[C@H](CCCC(C)(C)O)[C@H]1CC[C@H]2[C@@H]3CC[C@H]4CC(C(=O)O)CC[C@]4(C)[C@H]3CC[C@]12C` (stereo partly drawn) [compound 309, 25-hydroxy-5α-cholest-3-carboxylic acid] gave an IC50 of 8.96 µM.
For `C[C@H](CCCC(C)(C)O)[C@H]1CC[C@H]2[C@@H]3CCC4(O)C(=O)[C@@H](O)CC[C@]4(C)[C@H]3CC[C@]12C` (stereo partly shown) [compound 276, 3P,5,25-trihydroxycholest-4-one], the IC50 was 0.522 µM.
Work on `C[C@H](CCCC(C)(C)O)[C@H]1CC[C@H]2[C@@H]3CC(=O)C4(O)C[C@@H](O)CC[C@]4(C)[C@H]3CC[C@]12C` (stereo partly shown) [compound 225, 3P,5,25-trihydroxycholest-6-one] yielded an IC50 of 0.667 µM.
`C[C@H](CCCC(O)c1ccccc1F)[C@H]1CC[C@H]2[C@@H]3CC[C@H]4[C@@H](O)[C@@H](O)CC[C@]4(C)[C@H]3CC[C@]12C` (stereo partly shown) [compound 234] gave an IC50 of 0.36 µM.
With `CC(O)C1CC[C@@]2(C)[C@@H](CC[C@@H]3[C@@H]2CC[C@]2(C)[C@@H]([C@H](C)CCCC(C)(C)O)CC[C@@H]32)C1` (stereo partly drawn) [compound 290, 3-(1-hydroxyethyl)-5α-cholest-25-ol] the IC50 was 0.699 µM.
`C[C@H](CCCC(C)(C)O)[C@H]1CC[C@H]2[C@@H]3CCC4(O)C[C@@H](O)CC[C@]4(C)[C@H]3CC[C@]12C` (stereo partly shown) [compound 205, cholest-30,5,25-triol] gave an IC50 of 0.817 µM.
With `C[C@H](CCCC(O)c1c(F)cccc1F)[C@H]1CC[C@H]2[C@H]3[C@H](CC[C@]12C)[C@@]1(C)CC[C@H](O)C(=O)[C@@H]1CC3(F)F` (stereo partly drawn) [compound 301, (1R,3aS,3bS,5aR,7S,9aR,9bS,11aR)-1-[(2R)-6-(2,6-difluorophenyl)-6-hydroxyhexan-2-yl]-4,4-difluoro-7-hydroxy-9a,11a-dimethylhexadecahydro-1H-cyclopenta[1,2-α]phenanthren-6-one] the IC50 was 0.04 µM.
With `C[C@H](CCCC(C)(C)O)[C@H]1CC[C@H]2[C@@H]3CC[C@H]4[C@@H](O)[C@@H](OC(=O)CO)CC[C@]4(C)[C@H]3CC[C@]12C` [compound 313, (1R,3aS,3bS,5aR,6R,7S,9aR,9bS,11aR)-6-hydroxy-1-[(2R)-6-hydroxy-6-methylheptan-2-yl]-9a,11a-dimethylhexadecahydro-1H-cyclopenta[1,2-i]phenanthren-7-yl hydroxyacetate] the IC50 was 0.07 µM.
`C[C@H](CCCC(C)(C)O)[C@H]1CC[C@H]2[C@@H]3CC(O)C4(O)C[C@@H](O)CC[C@]4(C)[C@H]3CC[C@]12C` (stereo partly drawn) [compound 207, cholest-3β,5,6,25-tetraol] showed an IC50 of 3.09 µM.
`C[C@H](CCCC(C)(C)O)[C@H]1CC[C@H]2[C@@H]3CC[C@H]4C(O)(C(F)(F)F)[C@@H](O)CC[C@]4(C)[C@H]3CC[C@]12C` (stereo partly drawn) [compound 246, 4-(trifluoromethyl)-5α-cholest-3β,4,25-triol] was tested, and the IC50 was 0.988 µM.
`C[C@H](CCN(C)C(=O)c1ccccc1F)[C@H]1CC[C@H]2[C@@H]3CC[C@H]4C[C@@H](O)CC[C@]4(C)[C@H]3CC[C@]12C` [compound 268, 2-fluoro-N-[(3R)-3-[(1R,3aS,3bR,5aS,7S,9aS,9bS,11aR)-7-hydroxy-9a,11a-dimethylhexadecahydro-1H-cyclopenta[1,2-a]phenanthren-1-yl]butyl]-N-methylbenzamide] was tested, and the IC50 was 0.825 µM.
Work on `C[C@H](CCCC(O)C1CC1)[C@H]1CC[C@H]2[C@@H]3CC[C@H]4C[C@@H](O)CC[C@]4(C)[C@H]3CC[C@]12C` (stereo partly drawn) [compound 217, 24-[cyclopropyl(hydroxy)methyl]-5α-cholan-3β-ol] yielded an IC50 of 0.329 µM.
Compound `COc1ccccc1C(O)CCC[C@@H](C)[C@H]1CC[C@H]2[C@@H]3CC[C@H]4C[C@@H](O)CC[C@]4(C)[C@H]3CC[C@]12C` (stereo partly drawn) [compound 312, 24-[hydroxy(2-methoxyphenyl)methyl]-5α-cholan-3β-ol] has an IC50 of 0.18 µM.
`C[C@H](CCCC(O)c1c(F)cccc1F)[C@H]1CC[C@H]2[C@@H]3C(=O)C[C@H]4[C@@H](O)[C@@H](O)CC[C@]4(C)[C@H]3CC[C@]12C` (stereo partly drawn) [compound 289, 24-[(2,6-difluorophenyl)(hydroxy)methyl]-4β-hydroxy-3β-hydroxy-5α-cholan-7-one] was tested, and the IC50 was 0.117 µM.
Work on `C[C@H](CCCC(C)(C)O)[C@H]1CC[C@H]2[C@@H]3CC(O)[C@H]4[C@@H](O)[C@@H](O)CC[C@]4(C)[C@H]3CC[C@]12C` (stereo partly drawn) [compound 244, cholest-3β,4p,6,25-tetraol] yielded an IC50 of 3.76 µM.
In the case of `C[C@H](CCN1CCc2ccccc2C1=O)[C@H]1CC[C@H]2[C@@H]3CC[C@H]4C[C@@H](O)CC[C@]4(C)[C@H]3CC[C@]12C` [compound 224], the IC50 is reported as > 10 µM.
Work on `COc1ccccc1C(O)CCC[C@@H](C)[C@H]1CC[C@H]2[C@@H]3C(=O)C[C@H]4[C@@H](O)[C@@H](O)CC[C@]4(C)[C@H]3CC[C@]12C` (stereo partly drawn) [compound 320, 4β-hydroxy-3β-hydroxy-24-[hydroxy(2-methoxyphenyl)methyl]-5α-cholan-7-one] yielded an IC50 of 0.16 µM.
Compound `COC(=O)C1CC[C@@]2(C)[C@@H](CC[C@@H]3[C@@H]2CC[C@]2(C)[C@@H]([C@H](C)CCCC(C)(C)O)CC[C@@H]32)C1` (stereo partly drawn) [compound 321, methyl 25-hydroxy-5α-cholest-3-carboxylate] has an IC50 of 7.2 µM.
`C[C@H](CCCC(O)C1CC1)[C@H]1CC[C@H]2[C@@H]3CC[C@H]4[C@@H](O)[C@@H](O)CC[C@]4(C)[C@H]3CC[C@]12C` (stereo partly drawn) [compound 233, 24-[cyclopropyl(hydroxy)methyl]-5α-cholan-3β,4β-diol] showed an IC50 of 0.232 µM.
In the case of `C[C@H](CCCC(C)(C)O)[C@H]1CC[C@H]2[C@@H]3CC[C@H]4C[C@@H](OC(=O)CCC(=O)O)CC[C@]4(C)[C@H]3CC[C@]12C` [compound 294, 4-{[(1R,3aS,3bR,5aS,7S,9aS,9bS,11aR)-1-[(2R)-6-hydroxy-6-methylheptan-2-yl]-9a,11a-dimethylhexadecahydro-1H-cyclopenta[1,2-a]phenanthren-7-yl]oxy}-4-oxobutanoic acid], the IC50 is reported as 0.139 µM.
